# Data from patent US20190169597A1, “GENOME EDITING ENHANCERS” (bluebird bio, Inc., priority 2016, published 2019).
# Entries after “also recorded” stand apart in the source; their conditions may differ. Counter-ions that a name gives are not always drawn.
# Tests used:
# [1] = test system: TCRα gene in primary human T cells; assay: Small molecule screen: megaTAL-mediated disruption of the TCRα gene detected by loss of CD3 cell surface staining; type: cell-based; settings: 10 μM, 24 hours at 37° C., then three more days; proportion of CD4/CD8+ cells negative for CD3
# Method: A small molecule screen (FIG. 1) was performed to identify candidate soluble factors which could modulate the efficiency of genomic editing at the TCR locus in primary human T cells.
# primary human T cells = assay: Small molecule screen: cell yield (flow cytometry events in the live gate); settings: 10 μM, 24 hours at 37° C., then three more days; number of flow cytometry events in the live gate
# Method: Briefly, purified CD3+ primary human T cells were activated with CD3/CD28 magnetic beads and cultured for 48 hours in IL-2 supplemented complete RPMI media prior to bead removal. After bead removal, T cells were washed and electroporated with in vitro transcribed mRNA encoding a T cell receptor alpha (TCRα) targeting megaTAL-Trex2 fusion mRNA. Cells were then distributed into 384-well format and contacted with a library of ˜2000 known drugs, natural products, and other bioactive components (Microsource Discovery System's Spectrum Collection), with each drug at a final concentration of 10 μM. Cells were cultured with the compounds for 24 hours at 37° C. and then washed and cultured for an additional three days. Cells were then stained for CD3, CD4, and CD8 surface markers, and subjected to high-throughput volumetric flow cytometric analysis.
# The number of flow cytometry events in the “live” gate of the FSC/SSC profile was used as a measure of cell yield.
# [2] = test system: TCRα gene in primary T cells; assay: Dose response of megaTAL-Trex2 TCRα gene disruption (NHEJ editing efficiency) in primary T cells; type: cell-based, human; settings: 24 hours at 30° C. or 37° C.
# Method: (§1) T cells were purified, activated and electroporated with mRNA encoding TCRα-targeting megaTAL-Trex2 fusion as described in Example 1. Electroporated cells were cultured for 24 hours at either 30° C. or 37° C. with Tilorone, Aminacrine, Homidium Bromide (Ethidium Bromide) and Harmine. Cells were then washed to remove residual compound and cultured for an additional three days. After the three days of culture, the cells were stained with CD4, CD8 and CD3 and analyzed by flow cytometery as described in Example 1.
# [3] = test system: CCR5 locus in primary human CD34+ cells; assay: Non-target control: CCR5-specific megaTAL combined with BCL11A-targeting AAV template in CD34+ cells; type: cell-based; settings: aminacrine 0.3-3.0 μM for 24 hours
# Method: (§2) Primary human peripheral blood-derived CD34+ cells were cultured in cytokine-supplemented media for 72 hours. Cells were washed and electroporated with either an mRNA encoding a megaTAL specific for the human BCL11A erythroid enhancer region or a megaTAL targeting the human CCR5 locus. Cells were then incubated with AAV vector with or without aminacrine at concentrations of 0 μM, 0.3 μM, 1.0 μM, and 3.0 μM for 24 hours, washed and cultured in cytokine-supplemented media. HDR was analyzed at regular timepoints by flow cytometry to determine BFP fluorescence.
# [4] = test system: human peripheral blood CD34+ cells; assay: Methylcellulose colony forming assay of edited CD34+ cells; type: cell-based
# Method: (§3) A potential caveat with using small molecules to enhance gene repair is the impact on hematopoietic stem and progenitor cell survival. The methylceulluose colony forming assay was used to determine the impact of aminacrine treatment on hematopoietic stem and progenitor cell survival in vitro. Human peripheral blood CD34+ cells were cultured in cytokine supplemented media, electroporated with mRNA encoding BCL11A-specific megaTAL and transduced with BCL11A-HDR AAV vector, as described in Example 4.
# (§4) Cells were cultured in the presence or absence of aminacrine during the first 24 hours post-electroporation. Following this post-electroporation recovery step, cells were counted and plated into methylcellulose media.
# After 14 days in methylcellulose culture, the erythroid burst-forming units (BFU) and hematopoietic colony forming units (CFU) were scored based on frequency and morphology. […] FIG. 6.
# [5] = test system: TCRα locus in primary human T cells; assay: Aminacrine HDR assay: megaTAL-induced HDR of AAV MND-GFP transgene at the TCRα locus; type: cell-based; settings: for % GFP positive cells: megaTAL +
# Description: Adeno-associated virus (AAV) plasmids containing transgene cassettes comprising a promoter, a transgene encoding a fluorescent protein, and a polyadenylation signal were designed and constructed. The integrity of AAV ITR elements was confirmed with XmaI digest. The transgene expression cassette was placed between two homology regions within exon 1 of the TCRα gene to enable targeting by homologous recombination (AAV targeting vector) using a TCRα-targeting megaTAL. The 5′ and 3′ homology regions were ˜1500 bp and ˜1000 bp in length, respectively, and neither homology region contained the complete megaTAL target site. The transgene expression cassette contained a myeloproliferative sarcoma virus enhancer, negative control region deleted, d1587rev primer-binding site substituted (MND) promoter operably linked to a polynucleotide encoding a fluorescent polypeptide, e.g., green fluorescent protein (GFP). The expression cassettes also contain the SV40 late polyadenylation signal.
# Recombinant AAV-6 (rAAV) was prepared by transiently co-transfecting HEK 293T cells with one or more plasmids providing the replication, capsid, and adenoviral helper elements necessary. rAAV was purified from the co-transfected HEK 293T cell culture using ultracentrifugation in an iodixanol-based gradient.
# MegaTAL-induced homology directed repair (HDR) was evaluated in primary human T cells activated with CD3 and CD28 and cultured in complete media supplemented with IL-2. […] Controls included T cells containing megaTAL or rAAV targeting vector alone. Cells were cultured overnight at 30° C. in the presence or absence of two different doses of aminacrine. Five days post electroporation the frequency of GFP+ T cells was measured by flow cytometry.
# [6] = test system: BCL11A locus in primary human hematopoietic stem and progenitor cells; assay: HDR in methylcellulose colonies derived from CD34+ cells, by flow cytometry; type: cell-based; settings: samples treated with both megaTAL and rAAV vector
# Method: as §3, §4
# To determine whether treatment with aminacrine could yield elevated HDR rates in methylcellulose colonies derived from primary human hematopoietic stem and progenitor cells, colonies were harvested and analyzed by flow cytometry. […] FIG. 7.
# [7] = test system: BCL11A erythroid enhancer locus in primary human CD34+ cells; assay: HDR of AAV BFP template at the BCL11A erythroid enhancer with BCL11A megaTAL in CD34+ cells; type: cell-based; settings: aminacrine 0.3 μM, 1.0 μM, 3.0 μM for 24 hours
# Method: Adeno-associated virus (AAV) plasmids containing a promoter, a GFP or BFP reporter transgene and a polyadenylation signal were designed, constructed, and verified. The transgene was flanked by either 1.3 kb and 1.0 kb homology arms to the BCL11A erythroid enhancer locus at DHS58 (Bauer et al., Science. 342(6155): 253-7 (2013)). rAAV is generated by transient transfection of HEK293T cells, as described in Example 3.
# as §2
# [8] = test system: BCL11A erythroid enhancer region in primary human CD34+ cells; assay: HDR in bulk CD34+ cell population with BCL11A megaTAL and AAV donor template; type: cell-based; settings: aminacrine 1.0 μM for 24 hours
# Method: as §2, with “48” for “72”, “with” for “with either”, “region.” for “region or a megaTAL targeting the human CCR5 locus.”, “a concentration” for “concentrations”, “of” for “of 0 μM, 0.3 μM,”, “1.0” for “1.0 μM, and 3.0”
# primary T cells = assay: Dose response of primary T cell viability and yield; type: cell-based, human; settings: 24 hours at 30° C. or 37° C.
# Method: as §1
SMILES,% CD3 negative [1],Cell Yield (primary human T cells),"efficiency of TCRα disruption (proportion of CD3-negative cells), in words [2]",also measured
C[n+]1cc2c3c(ccc2c2ccc4cc5c(cc4c21)OCO5)OCO3 [Sanguinarine Sulfate],71.1%,2346,–,–
CC[n+]1c(-c2ccccc2)c2cc(N)ccc2c2ccc(N)cc21 [Homidium Bromide],80.3%,1023,Enhance MegaTAL-Mediated Gene Disruption,–
C[C@@H]1C[C@@H]([C@H](O)CC2CC(=O)NC(=O)C2)C(=O)[C@@H](C)C1 [Cyclohexamide],68.7%,4166,–,–
"Nc1c2ccccc2nc2ccccc12 [Aminacrine, 9-aminoacridine]",82.8%,13621,Enhance MegaTAL-Mediated Gene Disruption; also recorded: substantially enhanced gene disruption,"Template capture via a non-homology driven NHEJ pathway, in words [3]: not enhanced; proportion of BFP+ cells with CCR5-specific megaTAL and BCL11A-targeting AAV template, in words [3]: did not significantly increase; proportion of BFP+ cells with CCR5-specific megaTAL and BCL11A-targeting AAV template, in words ([3]; listed as aminacrine): not at the non-target CCR5 locus; lineage output of BFU and CFU colonies, in words ([4]; 14 days in methylcellulose culture, aminacrine during first 24 hours post-electroporation): comparable lineage output and showed no overt lineage skewing; hematopoietic stem and progenitor cell survival, in words ([4]; methylcellulose colony forming assay): does not Adversely Affect; % GFP+ (frequency of HDR events) ([5]; 10 μM aminacrine following megaTAL transfection, 18% without aminacrine): 36%; % GFP positive cells ([5]; Donor 783, Aminacrine 2 μM, AAV-GFP +): 25%; % GFP positive cells ([5]; Donor 783, Aminacrine 2 μM, AAV-GFP −): 0; % GFP positive cells ([5]; Donor 783, Aminacrine 10 μM, AAV-GFP +): 36%; % GFP positive cells ([5]; Donor 783, Aminacrine 10 μM, AAV-GFP −): 0; % GFP positive cells ([5]; Donor 855, Aminacrine 2 μM, AAV-GFP +): 41%; % GFP positive cells ([5]; Donor 855, Aminacrine 2 μM, AAV-GFP −): 0; % GFP positive cells ([5]; Donor 855, Aminacrine 10 μM, AAV-GFP +): 38%; % GFP positive cells ([5]; Donor 855, Aminacrine 10 μM, AAV-GFP −): 0; frequency of HDR events (% GFP+ cells), in words ([5]; T cells, aminacrine 2 μM and 10 μM overnight at 30° C.): concentration-dependent increase; proportion of cells undergoing HDR in methylcellulose colonies, in words [6]: increased the proportion of cells undergoing HDR; HDR frequency at the BCL11A locus (% BFP+ cells), in words [7]: concentration-dependent increase in HDR frequency; HDR frequency at the BCL11A locus (% BFP+ cells) in bulk CD34+ cells, in words [8]: increased HDR frequency; HDR frequency at the BCL11A locus (% BFP+ cells) in bulk CD34+ cells, in words ([8]; listed as aminacrine): increases HDR; T cell viability and yield, in words (primary T cells): minimal impact on cell viability"
CCN(CC)CCOc1ccc2c(c1)C(=O)c1cc(OCCN(CC)CC)ccc1-2 [Tilorone],86.8%,310,Enhance MegaTAL-Mediated Gene Disruption,–
OC[C@H]1O[C@@H](n2cnc3c(NCc4ccco4)ncnc32)[C@H](O)[C@@H]1O [Kinetin Riboside],70.8%,1668,–,–
CCOc1ccc2nc3cc(N)ccc3c(N)c2c1 [Ethacridine Lactate],70.4%,14179,–,–
COc1ccc2c(c1)[nH]c1c(C)nccc12 [Harmine],75.1%,9581,Enhance MegaTAL-Mediated Gene Disruption,–
COc1cccc2c1C(=O)c1c(O)c3c(c(O)c1C2=O)C[C@@](O)(C(C)=O)C[C@@H]3O[C@H]1C[C@H](N)[C@H](O)[C@H](C)O1 [Daunorubicin],73.3%,35,–,–
CCN(CC)CCNc1ccc(CO)c2sc3ccccc3c(=O)c12 [Hycanthone],74.1%,10012,–,–
